Reference: patent US20100190694A1, “Methods for identifying patients who will respond well to cancer treatment” (priority 2009, published 2010)
Values joined by “and” are separate entries in the source; they are usually repeats but may differ in a detail not shown here. Identical values can stand only once. Marks after values point to notes of the source that are not given here.

Tests used:
p21 [1] = assay: p21 mRNA by RTQ-PCR in PBMC; format: in vivo, human; settings: for P21 maximum percentage change versus baseline: one value per patient
Experimental: (§1) DLTs, i.e. grade ¾ non-hematologic toxicities and grade 4 neutropenia or thrombocytopenia, were determined in cycles 1 and 2. Safety was assessed by NCI CTC (v. 3) and efficacy by RECIST criteria. Expression of TS, DPD, and p21 mRNA was measured by RTQ-PCR in PBMC (20 patients at baseline, and pre-dosing, 6 and 24-hours post-dosing, on days 1 and 4 in cycle 1) and in tumor biopsies (8 patients at baseline and once on days 4 or 5 in cycle 1). Results were expressed as gene expression relative to actin (i.e. TS/Actin Relative Gene Expression, DPD/Actin Relative Gene Expression, and p21/Actin Relative Gene Expression).

[2] = system: diverse tumour cell lines; assay: proliferation of diverse tumour cell lines; format: cell-based; settings: range over cell lines; read-out: IC50, blocks proliferation of diverse tumour cell lines
[3] = system: dihydropyrimidine dehydrogenase (DPD); assay: DPD mRNA by RTQ-PCR in PBMC; format: in vivo, human; settings: for DPD maximum percentage change versus baseline: one value per patient
Experimental: as §1

tumour = assay: xenograft models, tumour growth; settings: in vivo
[4] = system: thymidylate synthase (TS); assay: TS mRNA by RTQ-PCR in PBMC; format: in vivo, human; settings: for TS maximum percentage change versus baseline: one value per patient
Experimental: as §1

p21 [5] = assay: p21 mRNA by RTQ-PCR in tumor biopsies; format: in vivo, human; settings: for patients with up-regulation of p21 in tumor tissue: Bel monotherapy, Bel 1000 mg/m^2/day
Experimental: as §1

[6] = system: TS, DPD, and p21 expression in PBMC; assay: '2 out of 3' TS/DPD/p21 expression pattern in PBMC versus clinical outcome; format: in vivo, human
Text: Among the 20 patients where an attempt was made to analyze TS, DPD, and p21 in PBMC, 2 patients seemed to have a clearly favorable clinical outcome (patients 101-3 and 102-14 with treatment durations on Bel/FU of 8 and 14 cycles, respectively; see Tables 4 and 6), i.e. a 10% favorable outcome rate without selection.
If selection of patients for treatment with Bel/FU would have been done after an initial-dose of Bel and analyses of TS, DPD, and p21 expression in PBMC 6-hours post Bel dosing, the favorable outcome rate could have been increased to between 33% and 67% by selection of patients based on a “2 out of 3” positive expression pattern (positive assumed to be TS down-, DPD down-, and p21 up-regulation in comparison to a pre-treatment value).
Selection based on one single sample taken 6-hours post Bel dosing (Table A): 6 (30%; patients 101-3/5/6/7, 102-6/14) of the 20 patients have “2 out of 3” markers showing a favorable expression change after Bel dosing, and 2 (33%) of the 6 patients have clearly favorable clinical outcomes. Note, also patients 101-6 and 101-7 with a “2 out of 3” pattern, but not counted as having “clearly favorable clinical outcome” have longer than median treatment durations on Bel/FU (i.e. 4 cycles; see Table 4).
Selection based on mean of two samples taken 6-hours post Bel dosing (Table B): 3 (15%; patients 101-3, 102-6/14) of the 20 patients have “2 out of 3” markers showing a favorable expression change after Bel dosing, and 2 (67%) of the 3 patients have clearly favorable clinical outcomes.
as §1

[7] = design: species or system human; settings: in vivo
Experimental: Cardiac safety was analyzed by extensive ECG monitoring (>3.000 ECG's assessed) in combination with PK assessments of Bel. Based on analyses by a central laboratory, the main findings (mean changes from baseline at the different dose-levels and for Bel alone and in combination with FU) were: • Heart rate, changes of −1 to +11 bpm, without outliers or any dose relationship. • PR duration, changes of −8 to +2 ms, without outliers or any dose relationship. • QRS duration, changes of −3 to +4 ms, without outliers or any dose relationship. • QTcF duration, changes of −4 to +18 ms, without any dose relationship. One outlier pat with a new QTcF value >500 ms was identified at dose-level 1000/750 (max post-infusion QTcF value 522 ms from pre-infusion value of 487 ms).
Phase I dose-escalation, multi-center study with the objectives to assess: • maximum tolerated dose and dose limiting toxicities (DLT) of Bel in combination with FU • impact of Bel on expression of TS, dihydropyrimidine dehydrogenase (DPD), and p21, in tumor and non-tumor surrogate tissue (peripheral blood mononuclear cells; PBMC) • preliminary anti-tumor activity of Bel in combination with FU • impact of Bel on ECG parameters • pharmacokinetics (PK) of Bel when given in combination with FU

[8] = system: thymidylate synthase (TS); assay: TS mRNA by RTQ-PCR in tumor biopsies; format: in vivo, human; settings: Bel monotherapy, Bel 1000 mg/m^2/day, patients with pre- and post-Bel samples
Experimental: as §1

[9] = PXD 600, one value per patient, listed as PXD
[10] = PXD 600, one value per patient, listed as PXD, with FU dose 250
[11] = PXD 600, one value per patient, listed as PXD, with FU dose 1000
[12] = PXD 1000, one value per patient, listed as PXD
[13] = PXD 1000, one value per patient, listed as PXD, with FU dose 250
[14] = PXD 1000, one value per patient, listed as PXD, with FU dose 500
[15] = PXD 1000, one value per patient, listed as PXD, with FU dose 1000
[16] = cycle 1, Belinostat Dose 300 mg/m^2/day
[17] = cycle 1, Belinostat Dose 600 mg/m^2/day
[18] = cycle 1, Belinostat Dose 1000 mg/m^2/day

## O=C(/C=C/c1cccc(S(=O)(=O)Nc2ccccc2)c1)NO [PXD-101]
p21 [1]; PXD 300, one value per patient
  6mean-p21, Change from baseline at 6 h based on mean of d1 + d4: 41%
  D1-6: p21, Change from baseline at 6 h day 1: 35%
p21 [1]; [9]
  D1-6: p21, Change from baseline at 6 h day 1: −9% and 31% and −48%
p21 [1]; [10]
  6mean-p21, Change from baseline at 6 h based on mean of d1 + d4: −16% and −55%
p21 [1]; [11]
  6mean-p21, Change from baseline at 6 h based on mean of d1 + d4: 15%
p21 [1]; [12]
  D1-6: p21, Change from baseline at 6 h day 1: 272% and −54% and 115% and −25% and 16% and 43% and 21% and 13% and −11% and 74% and 68%
p21 [1]; [13]
  6mean-p21, Change from baseline at 6 h based on mean of d1 + d4: 272% and −55% and 155% and −17% and 44% and 32%
p21 [1]; [14]
  6mean-p21, Change from baseline at 6 h based on mean of d1 + d4: 21% and −25%
p21 [1]; [15]
  6mean-p21, Change from baseline at 6 h based on mean of d1 + d4: −35% and 23% and 74%
p21 [1]; [16]
  P21 maximum percentage change versus baseline: 48% *
p21 [1]; [17]
  P21 maximum percentage change versus baseline: 43% * and 88% * and −86%
p21 [1]; [18]
  P21 maximum percentage change versus baseline: 68% * and 972% * and −72% and 715% * and 62% * and 156% * and 43% * and −71% and −83% and −86% and 74% * and −47%
[2]
  IC50: 0.08 to 2.43 µM
[3]; PXD 300, one value per patient
  6mean-DPD, Change from baseline at 6 h based on mean of d1 + d4: 131%
  D1-6: DPD, Change from baseline at 6 h day 1: 136%
[3]; [9]
  D1-6: DPD, Change from baseline at 6 h day 1: 30% and −87% and −56% and −13%
[3]; [10]
  6mean-DPD, Change from baseline at 6 h based on mean of d1 + d4: −22% and −37% and −13%
[3]; [11]
  6mean-DPD, Change from baseline at 6 h based on mean of d1 + d4: −59%
[3]; [12]
  D1-6: DPD, Change from baseline at 6 h day 1: −55% and −57% and 78% and −62% and −28% and 373% and 14% and 6% and 160% and −20% and 547%
[3]; [13]
  6mean-DPD, Change from baseline at 6 h based on mean of d1 + d4: −55% and 8% and 124% and −22% and 267% and 372%
[3]; [14]
  6mean-DPD, Change from baseline at 6 h based on mean of d1 + d4: 278% and 56%
[3]; [15]
  6mean-DPD, Change from baseline at 6 h based on mean of d1 + d4: 15% and 73% and −20%
[3]; [16]
  DPD maximum percentage change versus baseline: 136%
[3]; [17]
  DPD maximum percentage change versus baseline: −74% * and −87% * and −73% * and −13% *
[3]; [18]
  DPD maximum percentage change versus baseline: 547% and 91% and 220% and 169% and −83% * and 563% and 373% and 98% and −60% * and 160% and −20% * and 62%
tumour
  tumour growth in xenograft models: slows tumour growth
[4]; PXD 300, one value per patient
  6mean-TS, Change from baseline at 6 h based on mean of d1 + d4: 410%
  D1-6: TS, Change from baseline at 6 h day 1: 486%
[4]; [9]
  D1-6: TS, Change from baseline at 6 h day 1: 62% and −87% and 144%
[4]; [10]
  6mean-TS, Change from baseline at 6 h based on mean of d1 + d4: 126% and 144%
[4]; [11]
  6mean-TS, Change from baseline at 6 h based on mean of d1 + d4: −65%
[4]; [12]
  D1-6: TS, Change from baseline at 6 h day 1: −51% and 63% and −21% and 88% and −14% and 274% and 238%
[4]; [13]
  6mean-TS, Change from baseline at 6 h based on mean of d1 + d4: −51% and 54% and 286% and 169% and 182%
[4]; [15]
  6mean-TS, Change from baseline at 6 h based on mean of d1 + d4: 51% and 142%
[4]; [16]
  TS maximum percentage change versus baseline: 486%
[4]; [17]
  TS maximum percentage change versus baseline: 190% and −87% * and 144%
[4]; [18]
  TS maximum percentage change versus baseline: 238% and −51% * and 63% and 594% and 250% and 116% and 274% and −67% * and 214%
p21 [5]; listed as Bel
  patients with up-regulation of p21 in tumor tissue: Three of 4
p21 [5]; listed as belinostat
  patients with up-regulation of p21 in tumor tissue: 3 of the 4
p21 [5]; patient tumor samples, cycle 1 day 4 or 5, Bel 1000 mg/m^2/day, one value per patient, listed as belinostat
  p21 Change vs baseline: ≈
[6]; 6 h, mean of d1 + d4
  patients with '3 of 3 correct' marker pattern: 2 pts
[6]; 6 h, mean of d1 + d4, of 20 patients
  patients with '2 of 3 correct' marker pattern (down TS-down DPD-up p21): 3 pts
[6]; 6 h day 1
  patients with '3 of 3 correct' marker pattern: 2 pts
[6]; 6 h day 1, of 20 patients
  patients with '2 of 3 correct' marker pattern (down TS-down DPD-up p21): 6 pts
[7]; human
  max post-infusion QTcF value of the one outlier pat: 522 ms
[7]
  effect on heart rate, AV conduction, cardiac depolarization, morphology or cardiac re-polarization: no clear signal of any clinically relevant effect
[8]; listed as Bel
  patients with TS down-regulated in tumor tissue: 4 of 4
[8]; listed as belinostat
  patients with TS down-regulated in tumor tissue: Four of 4
